The record followed here is US9585880B2, “Cyclic amino compounds for use in the treatment of cardiac disorders” (Universitetet I Oslo, priority 2013, dated 2017).

Structures are written as SMILES. Where a name gives a salt, the structure may show the parent alone.

As usually defined, the EC50 is the concentration giving half of the maximal effect.

The target of the first test is AKAP18δ-PLB interaction (UniProt P26678+Q6JP77). Kind of test: AlphaScreen binding assay of the GST-AKAP18δ : PLB-biotin interaction. The settings on record: compound library screen; Table 1 compounds similar to those of formula (I); read-out: EC50. Here is the method: Stable and optimal assay conditions were determined by cross-titrating GST-AKAP186 and biotinylated PLB using 10 μg/ml glutathione acceptor beads and 10 μg/ml streptavidin donor beads in an AlphaScreen assay. The excitation wavelength was 680 nm, with the emission wavelength being 520-560 nm. Signal intensity in each well was registered and the optimal concentration to use was chosen to be the concentration prior to the peak of the signal.
Sequence of AKAP18δ-PLB interaction (Q6JP77 whole entry): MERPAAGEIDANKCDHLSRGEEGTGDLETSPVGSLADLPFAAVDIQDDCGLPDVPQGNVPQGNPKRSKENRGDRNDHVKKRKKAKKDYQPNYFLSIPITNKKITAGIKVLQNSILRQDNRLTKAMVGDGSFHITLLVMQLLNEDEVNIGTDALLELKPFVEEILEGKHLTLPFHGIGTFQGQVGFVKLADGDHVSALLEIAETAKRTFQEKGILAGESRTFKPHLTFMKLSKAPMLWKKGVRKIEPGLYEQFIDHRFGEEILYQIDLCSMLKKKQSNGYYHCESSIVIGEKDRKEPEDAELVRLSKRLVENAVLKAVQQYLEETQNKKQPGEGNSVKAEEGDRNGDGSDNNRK
Sequence of AKAP18δ-PLB interaction (P26678 whole entry): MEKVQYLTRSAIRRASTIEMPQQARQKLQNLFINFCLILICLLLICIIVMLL
Concentrations to give a reliable signal were determined to be between 2 and 16 nM for AKAP18δ-GST and 4 and 20 nM PLB-biotin for relevant preparations of protein, for example 4 nM and 20 nM, respectively.
compound library was screened with the above assay.
The compounds of Examples 2-10 were tested for pharmacological activity using the Binding Assay described above. The compounds of Examples 2-10 were dissolved in DMSO to a concentration of 10 mM, diluted in aqueous solution and tested for their ability to disrupt the AKAP18δ-PLB interaction at different concentrations in the AlphaScreen binding assay as described above.
Signal intensity was recorded at each concentration of compound. Maximal signal representing full interaction between AKAP186 and PLB at 0 μM compound was set to 100% and loss of signal (due to compound disruption of the protein-protein interaction) plotted against log [conc compound] and curves fitted in SigmaPlot (see FIGS. 2a-2i).
A general note: Bead proximity is the source of the signal in Alpha formats.
In the case of `CC(C)(C)c1ccc(CN(Cc2ccc(F)cc2)Cc2nc(C(=O)O)cs2)cc1`, the EC50 stood at 0.0416 mM.

In the case of `Cc1ccc(CN(Cc2ccc(F)cc2)Cc2nc(C(=O)O)cs2)cc1`, the 50% effective concentration (EC50) stood at 0.137 mM.

Regarding `O=C(O)c1csc(CN(CCC(c2ccccc2)c2ccccc2)Cc2ccccc2F)n1`, the half-maximal effective concentration (EC50) amounted to 0.0106 mM.

As to `O=C(O)c1csc(CN(CCC(c2ccccc2)c2ccccc2)Cc2ccc(F)cc2)n1`, the EC50 was 0.018 mM.

Turning to `CC(C)(C)c1ccc(CN(CCC(c2ccccc2)c2ccccc2)Cc2nc(C(=O)O)cs2)cc1`, the concentration giving a half-maximal response (EC50) was determined as 0.0211 mM.

With `COc1ccc(CN(Cc2ccc(F)cc2)Cc2nc(C(=O)O)cs2)cc1`, the EC50 stood at 0.0256 mM.

With `Cc1ccc(CN(CCC(c2ccccc2)c2ccccc2)Cc2nc(C(=O)O)cs2)cc1`, the EC50 was determined as 0.0354 mM.

With `O=C(O)c1ccc(CN(Cc2ccccc2)Cc2ccc(C(=O)O)cc2)cc1`, the EC50 worked out at 0.0296 mM.

As to `Nc1ccc(CN(Cc2ccccc2)Cc2ccc(N)cc2)cc1`, the EC50 came out at 0.0038 mM.

As to `CCN(CC)c1ccc(CN(Cc2ccccc2)Cc2ccc(N(CC)CC)cc2)cc1`, the EC50 amounted to 0.0029 mM.

`Nc1ccc(CN(Cc2ccc(N)cc2)Cc2ccc(N)cc2)cc1`: the concentration giving a half-maximal response (EC50) came to 0.0222 mM.

With `Cc1ccc(NC(=O)Nc2ccc(CN(Cc3ccccc3)Cc3ccc(NC(=O)Nc4ccc(C)cc4)cc3)cc2)cc1`, the concentration for a half-maximal effect (EC50) is 0.0025 mM.

For the compound `O=C(O)c1csc(CN(Cc2ccc(F)cc2)Cc2cccc(Cl)c2)n1`, the 50% effective concentration (EC50) came out at 0.0364 mM.

With `O=C(O)c1csc(CN(Cc2ccc(F)cc2)Cc2ccc(OCc3ccccc3)cc2)n1`, the concentration for a half-maximal effect (EC50) was determined as 0.0395 mM.

Consider `O=C(O)c1csc(CN(Cc2ccc(F)cc2)Cc2cccc(C(F)(F)F)c2)n1`, for which the 50% effective concentration (EC50) turned out to be 0.0605 mM.

Regarding `O=C(O)c1csc(CN(Cc2ccc(F)cc2)Cc2ccc(Cl)cc2)n1`, the EC50 turned out to be 0.0943 mM.

`Cc1ccc(CN(Cc2cccc(C(F)(F)F)c2)Cc2nc(C(=O)O)cs2)cc1`: the EC50 was determined as 0.0983 mM.

Consider `O=C(O)c1csc(CN(Cc2cccc(C(F)(F)F)c2)Cc2ccccc2F)n1`, for which the concentration for a half-maximal effect (EC50) was 0.216 mM.

Regarding `O=[N+]([O-])c1ccc(CN(Cc2ccccc2)Cc2ccc([N+](=O)[O-])cc2)cc1`, the concentration giving a half-maximal response (EC50) is 0.0075 mM.

Regarding `O=C(Nc1ccc(F)cc1)Nc1ccc(CN(Cc2ccccc2)Cc2ccc(NC(=O)Nc3ccc(F)cc3)cc2)cc1`, the concentration for a half-maximal effect (EC50) worked out at 0.0093 mM.

Turning to `O=C(Nc1ccccc1)Nc1ccc(CN(Cc2ccccc2)Cc2ccc(NC(=O)Nc3ccccc3)cc2)cc1`, the concentration for a half-maximal effect (EC50) is 0.0036 mM.

With `Cc1ccc(NC(=O)Nc2ccc(CN(Cc3ccc(NC(=O)Nc4ccc(C)cc4)cc3)Cc3ccc(NC(=O)Nc4ccc(C)cc4)cc3)cc2)cc1`, the EC50 worked out at 0.0052 mM.

As for `CN(C)c1ccc(CN(Cc2ccccc2)Cc2ccc(N(C)C)cc2)cc1`, the 50% effective concentration (EC50) is 0.002 mM.

The same test, now with this note: half-maximal disruption of AKAP18δ-PLB signal; compounds of Examples 2-10; read-out: EC50.
Consider `Cc1ccc(CN2CCc3ccccc3C2)cc1` [Compound 2, N-4-methyl-benzyl-1,2,3,4-tetrahydroisoquinoline], for which the EC50 was 0.142 mM.

`CC(C)(C)c1ccc(CN2CCc3ccccc3C2)cc1` [Compound 3, N-4-t-butyl-benzyl-1,2,3,4-tetrahydroisoquinoline hydrochloride salt]: the concentration giving a half-maximal response (EC50) was found to be 0.0553 mM.

On to `Brc1ccc(CN2CCc3ccccc3C2)cc1` [Compound 5, N-4-bromo-benzyl-1,2,3,4-tetrahydroisoquinoline hydrochloride salt], for which the EC50 amounted to 0.0645 mM.

Turning to `O=[N+]([O-])c1ccc(CN2CCc3ccccc3C2)cc1` [Compound 6, N-4-nitro-benzyl-1,2,3,4-tetrahydroisoquinoline], the concentration for a half-maximal effect (EC50) was found to be 0.0715 mM.

Turning to `c1ccc(CN2Cc3ccccc3C2)cc1` [Compound 7, N-benzyl-isoindoline hydrochloride salt], the concentration giving a half-maximal response (EC50) amounted to 0.207 mM.

For `c1ccc2c(c1)CN(Cc1ccncc1)C2` [Compound 8, N-4-methylpyridyl-isoindoline], the concentration giving a half-maximal response (EC50) was found to be 0.0718 mM.

Staying with this test, now noted: half-maximal disruption of AKAP18δ-PLB signal; compounds of Examples 2-10; value in mM.
As to `Cl.c1ccc(CN2CCc3ccccc3C2)cc1` [Compound 4, N-4-benzyl-1,2,3,4-tetrahydroisoquinoline hydrochloride salt], the EC50 entry is recorded as “single-digit”.

Staying with this test, now noted: half-maximal disruption of AKAP18δ-PLB signal; compounds of Examples 2-10; value in mM; read-out: EC50.
With `Cl.c1ccc(CN2CCc3ccccc3C2)cc1` [Compound 4, N-4-benzyl-1,2,3,4-tetrahydroisoquinoline hydrochloride salt], the EC50 is 6.5 mM.
